Data as given in US20260015357A1, “MODULATORS OF NLRP3 INFLAMMASOME AND RELATED PRODUCTS AND METHODS” (Neumora Therapeutics, Inc., priority 2022, published 2026).

Assays:
[1] = target: T1, NLRP3 inflammasome (Homo sapiens, UniProt Q96P20); assay: NLRP3 inflammasome activation in LPS-primed, nigericin-activated THP1 macrophages, IL-1β AlphaLISA; format: cell-based; conditions: PMA-differentiated, 1 hr compound, Nigericin 6.7 uM 3 hrs, IL-1β in supernatant
T1 construct: host or cells: THP1 human acute monocytic leukemia cells, PMA-differentiated, LPS-primed
T1 sequence (Q96P20 whole entry): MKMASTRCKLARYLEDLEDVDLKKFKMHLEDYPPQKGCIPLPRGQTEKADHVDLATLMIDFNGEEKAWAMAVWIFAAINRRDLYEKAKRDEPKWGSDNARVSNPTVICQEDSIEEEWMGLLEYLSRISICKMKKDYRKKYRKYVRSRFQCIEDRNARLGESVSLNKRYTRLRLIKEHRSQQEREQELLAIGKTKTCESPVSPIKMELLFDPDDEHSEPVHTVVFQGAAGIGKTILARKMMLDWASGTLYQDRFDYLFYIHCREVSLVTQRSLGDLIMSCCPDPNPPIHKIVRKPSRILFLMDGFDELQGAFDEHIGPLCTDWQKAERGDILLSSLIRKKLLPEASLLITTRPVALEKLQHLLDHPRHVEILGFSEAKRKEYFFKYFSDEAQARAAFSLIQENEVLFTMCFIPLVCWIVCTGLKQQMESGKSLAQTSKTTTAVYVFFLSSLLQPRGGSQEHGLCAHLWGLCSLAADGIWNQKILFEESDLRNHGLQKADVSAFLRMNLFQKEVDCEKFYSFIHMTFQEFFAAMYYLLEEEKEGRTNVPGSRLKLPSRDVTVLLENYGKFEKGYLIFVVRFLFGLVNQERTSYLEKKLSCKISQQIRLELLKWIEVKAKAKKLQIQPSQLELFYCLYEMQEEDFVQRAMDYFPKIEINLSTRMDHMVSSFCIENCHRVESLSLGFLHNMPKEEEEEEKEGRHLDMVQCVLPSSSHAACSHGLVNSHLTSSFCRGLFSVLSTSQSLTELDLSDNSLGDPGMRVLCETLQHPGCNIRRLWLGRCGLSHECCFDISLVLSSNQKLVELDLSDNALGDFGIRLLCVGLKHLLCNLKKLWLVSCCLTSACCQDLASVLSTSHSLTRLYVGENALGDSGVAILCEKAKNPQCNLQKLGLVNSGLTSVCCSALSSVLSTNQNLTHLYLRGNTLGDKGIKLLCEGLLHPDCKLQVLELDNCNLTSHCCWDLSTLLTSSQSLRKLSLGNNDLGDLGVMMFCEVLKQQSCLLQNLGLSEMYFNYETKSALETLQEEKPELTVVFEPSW

[2] = test system: IL-6; assay: IL-6 in supernatants of LPS-primed, nigericin-treated THP1 macrophages, Hu IL-6 AlphaLISA; format: cell-based; conditions: Homo sapiens, THP-1, PMA-differentiated, 1 hr compound, Nigericin 6.7 uM 3 hrs, IL-6 in supernatant

Compound | IC50 [1] [µM] | IC50 [2] [µM]
Cn1ccc2c(-c3ccc(C#N)cc3O)nnc(N[C@H]3CN(CCF)CC(F)(F)C3)c21 [Compound 149] | ≥ 10 | ≥ 10
Cn1ccc2c(-c3ccc(C(F)(F)F)cc3)nnc(N[C@@H]3CCCN(S(C)(=O)=O)C3)c21 [Compound 159] | 1 to 10 | ≥ 10
Cn1ccc2c(-c3ccc(C#N)cc3O)nnc(N[C@@H]3CCCN(C4COC4)C3)c21 [Compound 160] | 1 to 10 | ≥ 10
Cn1ccc2c(-c3ccc(C#N)cc3O)nnc(N[C@@H]3CCCN(c4ccccc4)C3)c21 [Compound 161] | ≥ 10 | ≥ 10
Cn1ccc2c(-c3ccc(C#N)cc3O)nnc(N[C@@H]3CCCN(c4ccncc4)C3)c21 [Compound 162] | 1 to 10 | ≥ 10
Cn1ccc2c(-c3ccc(C#N)cc3O)nnc(N[C@@H]3CCCN(c4cccnc4)C3)c21 [Compound 163] | ≥ 10 | ≥ 10
COc1cc(C)ccc1-c1nnc(N[C@@H]2CCCN(C)C2)c2c1cnn2C [Compound 167] | 1 to 10 | ≥ 10
CN1CCC[C@@H](Nc2nnc(-c3ncc(C(F)(F)F)cc3O)c3ccn(C)c23)C1 [Compound 168] | 1 to 10 | ≥ 10

Stronger by IC50 [1], values ahead:

IC50 [1] [µM] | IC50 [2] [µM] | Compound
< 0.01 | ≥ 10 | Cn1ccc2c(-c3ccc(C#N)cc3O)nnc(N[C@@H]3CCCN(CCO)C3)c21 [Compound 147]
0.01 to 0.1 | ≥ 10 | Cn1ccc2c(-c3ccc(C#N)cc3O)nnc(N[C@@H]3CCCN(CCF)C3)c21 [Compound 148]
< 0.01 | ≥ 10 | N#Cc1ccc(-c2nnc(N[C@@H]3CCCN(CCO)C3)c3sncc23)c(O)c1 [Compound 151]
0.01 to 0.1 | ≥ 10 | Cn1ccc2c(-c3ccc(C#N)cc3O)nnc(N[C@@H]3CCCN(CC(C)(C)O)C3)c21 [Compound 152]
0.01 to 0.1 | ≥ 10 | COCCN1CCC[C@@H](Nc2nnc(-c3ccc(C#N)cc3O)c3ccn(C)c23)C1 [Compound 153]
0.01 to 0.1 | ≥ 10 | COCCN1CCC[C@@H](Nc2nnc(-c3ccc(C#N)cc3O)c3cnsc23)C1 [Compound 154]
0.1 to 0.5 | ≥ 10 | CNCCN1CCC[C@@H](Nc2nnc(-c3ccc(C#N)cc3O)c3ccn(C)c23)C1 [Compound 155]
0.01 to 0.1 | ≥ 10 | CN(C)CCN1CCC[C@@H](Nc2nnc(-c3ccc(C#N)cc3O)c3ccn(C)c23)C1 [Compound 156]
0.1 to 0.5 | ≥ 10 | CN1CCC[C@@H](Nc2nnc(-c3ccc(C#N)cc3O)c3c(Cl)cn(C)c23)C1 [Compound 157]
0.01 to 0.1 | 5 to 10 | Cn1ccc2c(-c3ccc(C#N)cc3O)nnc(N[C@@H]3CCCNC3)c21 [Compound 158]
0.1 to 0.5 | ≥ 10 | Cn1ccc2c(-c3ccc(C#N)cc3O)nnc(N[C@@H]3CCCN(CCN)C3)c21 [Compound 164]
< 0.01 | ≥ 10 | CN1CCC[C@@H](Nc2nnc(-c3ncc(C#N)cc3O)c3cc(Cl)n(C)c23)C1 [Compound 165]
0.01 to 0.1 | ≥ 10 | CN1CCC[C@@H](Nc2nnc(-c3ncc(C(F)(F)F)cc3O)c3cnn(C)c23)C1 [Compound 166]
